Measurements: PMC10641831 (Journal of Medicinal Chemistry, 2023)
Values joined by “and” are separate entries in the source; they are usually repeats but may differ in a detail not shown here. Equal values may be shown once. Read-outs that look alike come from different tables or passages of the source. Numbered stars: 1 amine (or outer) side, 2 acyl side, 3 side chain; on linkers, the order of the positions; unused ones are H or OH. Bridge positions count the residues as written; N and C are the ends. Square brackets hold non-standard residues; d marks the D form. Peptide text beside a SMILES is read from it. AMPB(E) = O=C(c1ccc(/N=N/c2ccc(CN[*:1])cc2)cc1)[*:2]; X2 = O=C(c1ccc(/N=N\c2ccc(CN[*:1])cc2)cc1)[*:2]

How the values were obtained:
[1] = biological target: T1, hV1bR (Homo sapiens, UniProt P47901); experiment: IP-One accumulation assay, agonist function, HEK293 cells expressing hV1bR; assay type: cell-based; conditions: for Emax: HEK293, relative to the effect of VP, read-out: V1bR Emax ± SEM; for V1bR E/Z ratio EC50: ratio of EC50 of E- and Z-isomer
T1 construct: expressed in transfected cells
T1 sequence (P47901 1-424): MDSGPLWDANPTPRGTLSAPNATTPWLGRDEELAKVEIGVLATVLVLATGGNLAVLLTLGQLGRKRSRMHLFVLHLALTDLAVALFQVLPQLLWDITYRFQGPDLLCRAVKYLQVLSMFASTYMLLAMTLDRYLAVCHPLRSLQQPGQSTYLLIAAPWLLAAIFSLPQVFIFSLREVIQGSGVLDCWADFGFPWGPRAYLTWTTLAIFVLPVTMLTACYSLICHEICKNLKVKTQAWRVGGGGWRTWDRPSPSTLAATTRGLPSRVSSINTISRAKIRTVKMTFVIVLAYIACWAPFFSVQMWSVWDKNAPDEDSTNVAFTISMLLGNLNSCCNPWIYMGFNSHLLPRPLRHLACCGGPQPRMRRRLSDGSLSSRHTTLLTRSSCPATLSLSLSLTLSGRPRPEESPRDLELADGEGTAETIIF

[2] = biological target: T2, hV1aR (Homo sapiens, UniProt P37288); experiment: IP-One accumulation assay, agonist function, HEK293 cells expressing hV1aR; assay type: cell-based; conditions: for EC50: IP-One, stable HEK293 hV1aR, μM, read-out: V1aR EC50
T2 construct: expressed in transfected cells

[3] = Thermal half-life of the Z-isomer (UV/vis, 96-well plate); assay type: physicochemical; conditions: for t1/2 (thermal half-life, Figure S50): 50 µM in HEPES buffer + 0.25% DMSO, pre-irradiated with 340 nm; for t1/2 (thermal half-life Z to E): preirradiation with 340 nm
From the text: All photoprobes were investigated regarding their photophysical properties in aqueous buffer (pH 7.5), mimicking the conditions of the biological functional assays. […] Upon irradiation with 340 nm light for 10 s and monitoring via UV/vis spectroscopy, all compounds could be switched to the Z-isomer, reaching the photostationary state (PSS). Compounds 8–17 containing azobenzene could be switched back to the E-isomer by irradiation at 420 nm for 60 s. Compounds 18 and 19 containing arylazopyrazole could be reverted to the E isomer by using 528 nm light. […] The PSS, when switched to the Z-isomer, was consistently good, with a PSS of 81–95%. […] The thermal half-lives of 10 and 12 were also measured at 37 °C, representing the temperature during the biological assays. As expected, the thermal half-lives decreased, however, the ratio of E and Z isomers remained stable during the incubation period of the biological assays (1 h).
Starting materials and commercial reagents were purchased from Acros, Alfa Aesar, Fisher, Fluka, Fluorochem, Merck (Sigma-Aldrich), TCI and VWR and were used without further purification. Solvents were used in p.a. quality or dried according to common procedures if necessary. All reactions with oxygen- or moisture-sensitive reagents were carried out in glassware that was dried before use by heating under vacuum. Dry nitrogen or argon was used for an inert gas atmosphere. All NMR spectra were measured at room temperature (20 °C) using a Bruker Avance 400 (400 MHz for ^1H and 101 MHz for ^13C) or a Bruker Avance 600 (600 MHz for ^1H and 151 MHz for ^13C) NMR spectrometer. All chemical shifts are reported in δ-scale as parts per million [ppm] (multiplicity, coupling constant J, number of protons) relative to the solvent residual peaks. Coupling constants J are given in hertz [Hz]. Abbreviations used for signal multiplicity: ^1H NMR: s = singlet, d = doublet, dd = doublet of doublets, ddd = doublet of doublets of doublets, dt = doublet of triplets, t = triplet, td = triplet of doublets, q = quartet, and m = multiplet. All mass spectra were recorded on an Agilent Q-TOF 6540 UHD, Finnigan MAT SSQ 710 A, Jeol AccuTOF GCX or ThermoQuest Finnigan TSQ 7000 spectrometer. Absorption spectra were recorded on an UV/vis Agilent Cary 50 spectrometer. Thermal half-lives were measured on a 96-well plate in a Thermo Scientific Multiskan Spectrum. Analytical TLC was performed on silica gel-coated alumina plates (MN precoated TLC-sheets ALUGRAM Xtra SIL G/UV254). Visualization was done using UV light (254 or 366 nm) or staining with ninhydrin solution. Column chromatography was performed on a Biotage Isolera One automated flash purification system with a UV/vis detector. Analytical RP-HPLC was carried out on an Agilent 1220 Infinity LC System (column: P/No 00F-4251-B0, Phenomenex Luna 3 μm C18(2) 100 Å, LC column 150 mm × 2.0 mm). Purification by preparative HPLC was conducted on a preparative HPLC Agilent 1260 Infinity LC System [column: P/No 00G-4253-P0-AX, Phenomenex Luna 10 μm C18(2) 100 Å, LC column 250 mm × 21.2 mm]. The eluent systems were used as specified. After the purification process, solvents were removed by lyophilization. Switching experiments were done with a 340 nm LED (SSC VIOSYS CUD4AF1B, 500 mA, 55 mW), 420 nm LED (ILH-XC01-S410-SC211-WIR200, 800 mA, 440 mW), and 528 nm LED (OSRAM Oslon SSL 80 green, 500 mA, 34 mW). Purity of all photoprobes was >95% as determined by analytical RP-HPLC at 220 nm in DMSO.
1.3.4. Thermal Half-lives
Thermal half-lives were measured in a 96-well plate in a Thermo Scientific Multiskan® Spectrum at 25 °C (and at 37 °C for compounds 10 and 12). The solutions (50 µM in HEPES buffer + 0.25% DMSO) were pre-irradiated with 340 nm. The absorption at 335 nm was measured every 3 h. The data was analyzed using Origin 2021.
0,7 1/2 ExpDec1 Fit of Sheet1 B
Modell ExpDec1 0,35 Modell ExpDec1
0,6 Gleichung y = A 1 *e xp (-x/t1 ) + y0 Gleichung y = A 1 *e xp (-x/t1 ) + y0 […]

[4] = biological target: T3, hOTR (Homo sapiens, UniProt P30559); experiment: IP-One accumulation assay, agonist function, HEK293 cells expressing hOTR; assay type: cell-based; conditions: for potency difference between the E and Z isomers at OTR: EC50 E vs Z; for agonist character at OTR: IP-One assay; for EC50: supplementary CSV
T3 construct: expressed in transfected cells
T3 sequence (P30559 1-389): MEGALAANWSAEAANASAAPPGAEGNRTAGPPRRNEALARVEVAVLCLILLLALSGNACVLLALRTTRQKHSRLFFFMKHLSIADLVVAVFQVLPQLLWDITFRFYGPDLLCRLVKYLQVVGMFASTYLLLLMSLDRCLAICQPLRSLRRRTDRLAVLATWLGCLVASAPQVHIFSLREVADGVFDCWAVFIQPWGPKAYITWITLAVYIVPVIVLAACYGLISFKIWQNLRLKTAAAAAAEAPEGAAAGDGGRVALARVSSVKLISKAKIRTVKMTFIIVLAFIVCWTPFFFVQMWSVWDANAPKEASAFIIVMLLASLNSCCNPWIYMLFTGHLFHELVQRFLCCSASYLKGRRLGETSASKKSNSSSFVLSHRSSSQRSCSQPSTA

[5] = Photostationary state by analytical C18-RP-HPLC; assay type: physicochemical; conditions: for PSS (E → Z): irradiation with 340 nm, HEPES buffer; for PSS (Z → E): irradiation with 420 nm (8–17) or 528 nm (18, 19)
Procedure: All photoprobes were investigated regarding their photophysical properties in aqueous buffer (pH 7.5), mimicking the conditions of the biological functional assays.
1.3.2. Photostationary States
Photostationary states (PSS) were measured on analytical C18-RP-HPLC (flow: 0.3 mL/min, solvent A: H2O (0.05% TFA), solvent B: MeCN). To determine the PSS of the photoswitches, the samples (in 0.1 mM in HEPES buffer + 1% DMSO, pH 7.5) were irradiated first with 340 nm to get the Z-isomer. Afterwards, the sample was irradiated with 420 nm (8-17) or 528 nm (18 and 19), respectively, to get back to the E-isomer. The samples were measured at the isosbestic points.

[6] = IP-One, stable HEK293 hV1bR, read-out: V1bR EC50 ± SEM
[7] = read-out: activity E-isomer OTR
[8] = read-out: activity Z-isomer OTR

T2 sequence (P37288 whole entry): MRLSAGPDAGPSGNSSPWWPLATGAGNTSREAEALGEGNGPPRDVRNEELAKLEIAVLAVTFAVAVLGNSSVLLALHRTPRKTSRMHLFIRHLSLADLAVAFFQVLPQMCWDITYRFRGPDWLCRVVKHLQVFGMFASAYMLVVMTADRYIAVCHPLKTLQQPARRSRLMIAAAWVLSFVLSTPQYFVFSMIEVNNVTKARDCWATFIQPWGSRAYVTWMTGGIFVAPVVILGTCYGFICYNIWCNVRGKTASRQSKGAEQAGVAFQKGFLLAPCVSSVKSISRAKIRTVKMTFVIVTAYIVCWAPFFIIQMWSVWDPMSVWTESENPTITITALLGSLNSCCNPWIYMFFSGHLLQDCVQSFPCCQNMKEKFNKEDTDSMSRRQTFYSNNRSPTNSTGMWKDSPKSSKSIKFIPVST

| SMILES | Emax [1] [%] | EC50 [1, 6] [µM] | V1bR E/Z ratio EC50 [1] | EC50 [2] [µM] | t1/2 (thermal half-life, Figure S50) ([3]; 25 °C) [h] | t1/2 (thermal half-life Z to E) ([3]; 25 °C, HEPES buffer pH 7.4) [h] | also measured |
| --- | --- | --- | --- | --- | --- | --- | --- |
| N=C(N)NCCC[C@H](NC(=O)c1ccc(/N=N\c2ccc(CNC(=O)[C@@H]3CSSC[C@H](N)C(=O)N[C@@H](Cc4ccc(O)cc4)C(=O)N[C@@H](Cc4ccccc4)C(=O)N[C@@H](CCC(N)=O)C(=O)N[C@@H](CC(N)=O)C(=O)N3)cc2)cc1)C(=O)NCC(N)=O [Z-14] (H-CYFQNC[X2]RG-NH2; disulfide 1-6) | 67 ± 2 | 2.37 ± 0.607 | 2.1 | > 10 |  |  |  |
| NC(=O)CC[C@@H]1NC(=O)[C@H](Cc2ccccc2)NC(=O)[C@H](Cc2ccc(O)cc2)NC(=O)[C@@H](N)CSSC[C@@H](C(=O)NCc2ccc(/N=N\c3ccc(C(=O)NCC(N)=O)cc3)cc2)NC(=O)[C@H](CC(N)=O)NC1=O [Z-13] (H-CYFQNC[X2]G-NH2; disulfide 1-6) | 52 ± 5 | 7.23 ± 1.57 | 1.6 | > 10 |  |  |  |
| NC(=O)CC[C@@H]1NC(=O)[C@H](Cc2ccccc2)NC(=O)[C@H](Cc2ccc(O)cc2)NC(=O)[C@@H](N)CSSC[C@@H](C(=O)NCc2ccc(/N=N/c3ccc(C(=O)N[C@@H](CCCN=C(N)N)C(=O)NCC(N)=O)cc3)cc2)NC(=O)[C@H](CC(N)=O)NC1=O [compound 14, [AzbL^7]-VP] (H-CYFQNC[AMPB(E)]RG-NH2; disulfide 1-6) |  |  |  |  |  |  | EC50 ([1]; supplementary CSV, read-out: activity Z-isomer V1bR): 2.37 ± 0.607 µM |
| NC(=O)CC[C@@H]1NC(=O)[C@H](Cc2ccccc2)NC(=O)[C@H](Cc2ccc(O)cc2)NC(=O)[C@@H](N)CSSC[C@@H](C(=O)NCc2ccc(/N=N/c3ccc(C(=O)NCC(N)=O)cc3)cc2)NC(=O)[C@H](CC(N)=O)NC1=O [E-13] (H-CYFQNC[AMPB(E)]G-NH2; disulfide 1-6) | 45 ± 3 | 11.3 | 1.6 | > 10 |  |  |  |
| N=C(N)NCCC[C@H](NC(=O)[C@@H]1CCCN1C(=O)[C@@H]1CSSC[C@H](N)C(=O)N[C@@H](Cc2ccc(O)cc2)C(=O)N[C@@H](Cc2ccc(/N=N/c3ccccc3)cc2)C(=O)N[C@@H](CCC(N)=O)C(=O)N[C@@H](CC(N)=O)C(=O)N1)C(=O)NCC(N)=O [compound 12, [AzbS^3]-VP] |  |  |  |  | 72 | 72 | potency difference between the E and Z isomers at V1bR (photoswitch window) ([1]; EC50 E vs Z): 5.3 fold and 5 fold; t1/2 (thermal half-life, Figure S50) ([3]; 37 °C): 33.6 h; t1/2 (thermal half-life Z to E) ([3]; 37 °C): 33.6 h; reduced potency at V1aR compared to VP ([2]; EC50 vs VP): > 1000 fold |
| CC[C@H](C)[C@@H]1NC(=O)[C@H](Cc2ccc(O)cc2)NC(=O)[C@@H](N)CSSC[C@@H](C(=O)NCc2ccc(/N=N/c3ccc(C(=O)N[C@@H](CC(C)C)C(=O)NCC(N)=O)cc3)cc2)NC(=O)[C@H](CC(N)=O)NC(=O)[C@H](CCC(N)=O)NC1=O [compound 11, [AzbL^7]-OT] (H-CYIQNC[AMPB(E)]LG-NH2; disulfide 1-6) |  |  |  |  | 28.8 | 28.8 | potency difference between the E and Z isomers at OTR [4]: 2 fold; agonist character at OTR [4]: potent agonists; EC50 [4, 7]: 0.263 ± 0.021 µM; EC50 [4, 8]: 0.134 ± 0.017 µM; PSS (E → Z) [5]: 87%; PSS (Z → E) [5]: 85% |
| CC[C@H](C)[C@@H]1NC(=O)[C@H](Cc2ccc(O)cc2)NC(=O)[C@@H](N)CSSC[C@@H](C(=O)NCc2ccc(/N=N/c3ccc(C(=O)NCC(N)=O)cc3)cc2)NC(=O)[C@H](CC(N)=O)NC(=O)[C@H](CCC(N)=O)NC1=O [compound 10, [AzbL^7/8]-OT] (H-CYIQNC[AMPB(E)]G-NH2; disulfide 1-6) |  |  |  |  | 40.8 | 40.8 | t1/2 (thermal half-life, Figure S50) ([3]; 37 °C): 24 h; t1/2 (thermal half-life Z to E) ([3]; 37 °C): 24 h; potency difference between the E and Z isomers at OTR [4]: 3.1 fold and 3 fold; agonist character at OTR [4]: potent agonists; EC50 [4, 7]: 0.0946 ± 0.019 µM; EC50 [4, 8]: 0.0307 ± 0.004 µM; PSS (E → Z) [5]: 86%; PSS (Z → E) [5]: 81% |
| N=C(N)NCCC[C@H](NC(=O)c1ccc(/N=N/c2ccc(CNC(=O)[C@@H]3CSSC[C@H](N)C(=O)N[C@@H](Cc4ccc(O)cc4)C(=O)N[C@@H](Cc4ccccc4)C(=O)N[C@@H](CCC(N)=O)C(=O)N[C@@H](CC(N)=O)C(=O)N3)cc2)cc1)C(=O)NCC(N)=O [E-14] (H-CYFQNC[AMPB(E)]RG-NH2; disulfide 1-6) | 48 ± 2 | 4.97 ± 0.754 | 2.1 | > 10 |  |  |  |
